“Also recorded” adds a separate entry of the source.

One assay concerns HCT-116 cell line. The assay can be described thus: MTT cell proliferation assay. The class given is cell-based. The text has this: Structure Activity Relationships (SAR) studies for 1SS, […], 1RS, and […]. It has been reported that ablation of C3, C6 and C7 substituents is detrimental to activity. […] (See FIG. 4). Additional activity was also observed when C17 was left in its natural R configuration.
(Tetrazolium assays rely on reduction of a dye to a coloured formazan, in cell work by metabolically active cells.)

The test system of a further assay is CLL cells. The assay can be described thus: Flow cytometry, % specific induced apoptosis (DiOC6/PI) in primary CLL cells. Conditions: 48 hours. The format is cell-based, human. The method, then: (§1) FIG. 20A-20C: FD-895 and PLAD induce apoptosis in CLL cells but not in normal lymphocytes with a TP53 independent activity: Primary leukemia B cells from CLL (FIG. 20A) patient with del (17p) and Tp53 mutation, (FIG. 20B) patient with wild type p53 and sensitive to F-Ara-A and (FIG. 20C) normal lymphocytes from healthy donor were incubated with FD-895, PLAD and F-Ara-A (0, 10, 100, 1000 10,000 nM) for 48 hours.
(§2) FIG. 21: FD-895 and PLAD induce apoptosis in CLL cells not ONLY independently of Tp53 but also independently of SF3B1 mutational status: Primary leukemia B cells from CLL patient with SF3B1 wild, SF3B1 mutation, 17p DEL and normal B and T lymphocytes from healthy donor were incubated with FD-895 and PLAD with 100 nM for 48 hours. After incubation, the samples were harvested and % SIA was measured by flow cytometry as described above. […] Each dots represents number of CLL patient sample and normal B or T cells.
Peripheral blood mononuclear cells (PBMC) from patients with CLL were obtained from the CLL Research Consortium (CRC) tissue bank. The blood samples were collected after obtaining a written informed consent from the patients under a protocol approved by the institutional review board of The University of California, San Diego. All patients met criteria for CLL.^1 CLL B cells and PBMCs were separated from heparinized venous blood of the B-CLL patients by density gradient centrifugation using Ficoll-Hypaque (GE healthcare) as described earlier.^2 The samples that were used had more than 95% positive cells for CD19 and CD5+, as assessed by flow cytometry. CLL B cells were maintained in RPMI 1640 medium supplemented with 10% FBS, 2 mM L-glutamine, and 100 U/mL of penicillin and 100 μg/mL of streptomycin at 37° C. in an atmosphere of 5% CO2.
(§3) Apoptotic and viable cells were discriminated via flow cytometry of cells stained with 3,3′ dihexyloxacarbocyanine iodide (DiOC6) (Molecular Probes, Eugene, Oreg., USA) and propidium iodine (Sigma, St Louis, Mo., USA), as described.^3 Using this method viable cells exclude PI and stain brightly positive for DiOC6.

Assay [1] concerns normal B lymphocytes from healthy donor. The assay can be described thus: Flow cytometry, % specific induced apoptosis in normal B lymphocytes. The format is cell-based, human. Conditions: 48 hours. The protocol: as §1, §2
(§4) Normal B cells were purified from buffy coats of healthy volunteers, obtained from San Diego blood bank. Positive isolation with Dynabeads® CD19 pan B and DETACHaBEAD CD19 (Invitrogen Life Technologies, USA) were used to achieve more than 95% purity by flow cytometry analysis.
as §3
For orientation: A flow cytometer gives signals particle by particle.

For another assay, the system named is GAPDH. The assay can be described thus: RT-PCR of spliced and unspliced mRNA (intron retention) in CLL cells, housekeeping gene. The class given is cell-based, human. Particulars: for intron retention/splicing inhibition of GAPDH: 100 nM, 15 min to 4 hours; for splicing inhibition of housekeeping gene GAPDH: 4 hours, same concentrations. The method, then:
FIG. 23: FD-895 and PLAD induced inhibition of splicing in CLL: RT-PCR for analysis of spliced and unspliced mRNAs. CLL cells treated with FD-895, PLAD (10, 100 nM), chemotherapeutic agent like bendamustine (33, 100 μM) and F-Ara-A (3, 10, 33 μM) for 4 hours. RT-PCR for DNAJB1 was performed with primers spanning two exons; products were analyzed on ethidium bromide-stained agarose gels (2%) to visualize the correct size of the unspliced mRNAs. […] The exon structure of DNAJB1 gene is indicated. G, human genomic DNA was used as a control; U, unspliced mRNA; S, spliced mRNA.
CLL cells were treated with 10 and 100 nM of FD-895 and PLAD, 33 and 100 μM of bendamustine and 3, 10, and 33 μM of F-Ara-A for 4 h. Normal B and CLL cells were treated with 100 nM of FD-895 and PLAD and 10 μM of F-Ara-A for 15 minutes, 30 minutes, 1, 2 and 4 h. Total RNA was extracted using mirVana™ miRNA isolation kit (Ambion Life Technology, USA). After DNase treatment, 200 ng total RNA was reverse-transcribed using a SuperScript™ III first-strand synthesis system (Invitrogen). PCR was performed on 10 ng of the obtained cDNA (or human genomic DNA as a control) in 25 μl of reaction mixture containing Plantinum® PCR SuperMix High-fidelity (Invitrogen Life Technology, USA), and 0.1 μM of each primer of the appropriate pair.
PCR conditions were 94° C. for 3 min; 35 cycles of 94° C. for 30 s, 60° C. for 30 s, and 72° C. for 1 min; followed by 72° C. for 5 min. PCR products were separated on a 2% agarose gel and stained with ethidium bromide.

In another assay the test system is RIOK3. The assay can be described thus: Quantitative RT-PCR of unspliced mRNA in normal B cells. The format is cell-based, human. Particulars: 4 hours. The method, then:
Quantitative RT-PCR using primers specific for each intron quantified unspliced mRNA for DNAJB1 (FIG. 25A) and RIOK3 (FIG. 25B). GAPDH was used for normalization. […] Error bars indicate S.D.
as §4
CLL cells were treated with 100 nM of FD-895 and PLAD and 10 μM of F-Ara-A for 15 minutes, 1 and 4 h. Normal B and CLL cells were treated with 10, 100, and 1000 nM of FD-895 and PLAD and 10 μM of F-Ara-A for 4 h.
Extraction of total RNA and cDNA synthesis were performed as described earlier. Unspliced mRNA was quantified using a 7900HT fast Real Time PCR System (Applied Biosystems). The amounts of unspliced mRNA of DNAJB1, and RIOK3 were determined by SYBR green (Power SYBR Green PCR Master Mix, Applied Biosystems) real-time quantitative RT-PCR using specific primers designed for the intron of each gene (see additional information section at the end).
PCR using 0.2 μM of each primer was performed on 20 ng of the obtained cDNA. PCR conditions were 50° C. for 2 min; 95° C. for 10 min; 35 cycles of 94° C. for 20 s, 55° C. for 20 s, followed by 72° C. for 30 s. The mRNA levels were calculated using 2^−ΔΔCT method.^4 GAPDH was used as a control for normalization.

[2] abbreviates: CLL patients with 17p DEL, 100 nM.
Where [3] appears, read: CLL patients with SF3B1 mutation, 100 nM.
Setting [4] is: CLL patients with SF3B1 wild, 100 nM.
The mark [5] stands for this setting: CLL patients with Tp53 mutation (so in the source).
Setting [6] is: CLL patients with del (17p), 0-10,000 nM.
The mark [7] stands for this setting: B cells from healthy donors, 0-10,000 nM.
The mark [8] stands for this setting: normal B cells from healthy donors, 100 nM.

Usually IC50 stands for the midpoint of a concentration-inhibition curve. Lower therefore signals greater potency in that assay. In the case of `CCC(OC)C(C)C1OC1C(O)C(C)/C=C/C=C(\C)C1OC(=O)CC(O)CCC(C)(O)C(OC(C)=O)/C=C/C1C` (centres unmarked) [FD-895], the IC50 in the assay on HCT-116 cell line (HCT-116 cell line, MTT) amounted to 23.5 ± 0.2 nM; with HCT-116 cell line (HCT-116 cell line, MTT, listed as 1RR), 24.2 ± 0.9 nM; with HCT-116 cell line (background statement, cell line not given) it was 24.2 ± 0.9 nM. For the same molecule, the “apoptosis (% SIA)” value in the assay on CLL cells (setting [2]) is reported as “significant cells death; also recorded: induced apoptosis”; with CLL cells (setting [3]), “significant cells death; also recorded: induced apoptosis”; in the assay with CLL cells (setting [4]), “significant cells death”; in the assay with CLL cells (setting [5]), “significant death”; in the assay on CLL cells (setting [6]), “significant killing”; in assay [1] (setting [7]), “did not induce significant apoptosis”. For the same molecule, the “apoptosis (% SIA)” value in assay [1] (setting [8]) is “did not induce significant cell death; also recorded: did not show significant apoptosis”. For the same molecule, the “intron retention/splicing inhibition of GAPDH” value in the assay on GAPDH is listed as “no intron retention/splicing inhibition”. The “splicing inhibition of housekeeping gene GAPDH” value with GAPDH was “Neither FD-895, PLAD nor chemotherapy agents showed splicing inhibition”. The “unspliced mRNA of RIOK3” value in the assay with RIOK3 is on record as “did not show significant increase in unspliced mRNA”.

As for Pladienolide B, the “apoptosis (% SIA)” value is “significant cells death; also recorded: induced apoptosis” in the assay with CLL cells (setting [2]); “significant cells death; also recorded: induced apoptosis” in the assay with CLL cells (setting [3]); “significant cells death” with CLL cells (setting [4]); “significant death” in the assay with CLL cells (setting [5]); “significant killing” in the assay on CLL cells (setting [6]); “did not induce significant apoptosis” in assay [1] (setting [7]). For the same molecule, the “apoptosis (% SIA)” value in assay [1] (setting [8]) is “did not induce significant cell death; also recorded: did not show significant apoptosis”. Besides, the “intron retention/splicing inhibition of GAPDH” value in the assay with GAPDH is “no intron retention/splicing inhibition”. Besides, the “splicing inhibition of housekeeping gene GAPDH” value with GAPDH is on record as “Neither FD-895, PLAD nor chemotherapy agents showed splicing inhibition”. Further, the “unspliced mRNA of RIOK3” value in the assay with RIOK3 is reported as “did not show significant increase in unspliced mRNA”.

The values above are taken from US9604973B2, “Anti-cancer polyketide compounds” (priority 2012, dated 2017).
